Source: patent US12558326B2, “Method for treating epilepsy” (Xenon Pharmaceuticals Inc., priority 2018, dated 2026)
Where “and” joins values, the source holds several entries; their conditions need not be identical. Equal values may be shown once.

Columns and labels:
[1] = Brain and plasma distribution after the 6 Hz assay (UHPLC-ESI-MS/MS); format: in vivo, mouse; conditions: 20 mg/kg IP, total concentration, sampled immediately after 6 Hz assay (one hour post dose)
Procedure: Pharmacological distribution and bioanalysis. Immediately following characterization of seizure behaviors in the 6 Hz assay, animals were humanely sacrificed and brain and plasma samples were collected for analysis of the distribution of the administered compounds to these tissue compartments.
Brain sample homogenization. Pre-weighed whole mouse brains were thawed and 1 mL of deionized water and 1 mL of acetonitrile were added to each sample vial containing brain tissue. The samples were homogenized using a hand-held Omni™ TH homogenizer (Omni International, Kennesaw, GA, USA) until a uniform slurry was obtained. 1 mL aliquots of the slurry were transferred to clean 1.5 mL plastic Eppendorf tubes and the tubes were centrifuged at 13,000 rpm (15,871×g) for 20 minutes. The supernatant was collected and stored in clean labelled plastic Eppendorf vials at −80° C.
Mouse plasma and brain homogenate sample preparation. Mouse brain homogenates and mouse plasma samples, as well as calibration standards and QC samples prepared from control (“blank”) untreated mouse plasma, were extracted by protein precipitation. Briefly, 50 μL of each brain homogenate and mouse plasma sample (as well as each calibration standard, QC sample and blank mouse plasma sample) was mixed with 50 μL of internal standard solution [a 2,500 ng/mL solution of (S)-5-((1-benzylpyrrolidin-3-yl)(methyl)amino)-6-methyl-N-(thiazol-4-yl)pyridine-2-sulfonamide in deionized water/acetonitrile (1:1 v/v)], followed by addition of 50 μL of 6% (v/v) phosphoric acid in water. This was followed by the addition of 200 μL of acetonitrile. The samples were vortexed for 30 seconds and then centrifuged for 20 min at 13,000 rpm (15,871×g). The supernatants were further diluted four-fold with acetonitrile:water (1:1 v/v) and transferred to a 96-well plate prior to analysis. Calibration and QC samples were prepared in blank K2EDTA mouse plasma in the concentration range from 2.3 ng/mL to 4800 ng/mL with QC samples, including low QC (14 ng/mL), mid QC (225 ng/mL), and high QC (3600 ng/mL).
UHPLC-ESI-MS/MS analysis. Samples were then analyzed by ultra-high pressure liquid chromatography/electrospray ionization tandem mass spectroscopy (UHPLC-ESI MS/MS) using a Sciex™ TQ-5500 (AB Sciex™ LP, Concord, ON, Canada) mass spectrometer equipped with a Shimadzu Nexera™ UHPLC pump, column compartment and auto-sampler (Shimadzu Scientific Instruments, Inc., Columbia, MD, USA), using a binary gradient elution starting with 80% water (A)/20% acetonitrile (B), both solvents containing 0.1% formic acid. After 0.6 minutes, mobile phase B was increased linearly to 100% to 1 minute and elution was maintained at 100% mobile phase B until 1.5 minutes, and then allowed to re-equilibrate at the initial ration of 80% mobile phase A and 20% mobile phase B for a total run time of 2.5 minutes at a flow rate of 0.4 mL/min. The column used was ACE Excel™ 2 C18-PFP (2.1 mm i.d.×[…], 2 μm particle size)(Advanced Chromatography Technologies Ltd, Aberdeen, Scotland). The analytes and the internal standard were ionized by electrospray in the positive ion mode and detected by multiple reaction monitoring (MRM) using the transitions listed in Table 1.

CF-1 mice = assay: 6 Hz seizure test (44 mA, 3 sec, corneal electrodes) in vivo; parameters: species or system mouse; conditions: 20 mg/kg IP; for percentage of animals protected against psychomotor seizures: one hour before assay, 6 Hz 44 mA, n=16 per group
Source text: This assay tests the ability of a test compound to block a psychomotor seizure induced by long-duration, low frequency (6 Hz) stimulation, and provides an art-accepted model of therapy-resistant partial seizure (Brown et al., 1953 J. Pharmacol. Exp. Therapeut. 107(3):273-283; White H S, Woodhead J H, Wilcox K S, General principles: discovery and preclinical development of antiepileptic drugs, In: Levy R H, Mattson R H, Meldrum B S, Perucca E, editors. Antiepileptic drugs 5th ed Philadelphia: Lippincott Williams & Wilkins; 2002. pp. 36-48; Hartman et al., 2008 Epilepsia 49(2):334-339).
Methods. Adult male CF1 mice (18-25 g) are pretreated intraperitoneally (i.p.) with the test compound at a dose of 20-100 mg/kg. If toxicity is noted in a pre-test screen for toxic effects when the test compound is administered i.p. at varying dosages, the dose is modified to avoid overt toxic effects. Each treatment group (n=4-16 mice/group) is examined for anticonvulsive effects at one or more of five time points (¼, ½, 1, 2, and 4 hr) after treatment with the test compound. Following pretreatment, each mouse receives a drop of 0.5% tetracaine hydrochloride applied to each eye. The mouse is then challenged with low-frequency (6 Hz) stimulation for 3 sec delivered through corneal electrodes. The low-frequency, long-duration stimuli are initially delivered at 32 mA intensity. Animals are manually restrained and released immediately following the stimulation and observed for the presence or absence of seizure activity. If the test compound is effective in the 32 mA screen, an additional assay is performed in which the stimulation current is increased to 44 mA but otherwise using the same protocol as described above. For dose-response studies, an n of 8 mice is used per dose and a dose-response curve is generated at the time of peak effect (TPE) at the specific stimulation intensity.
Typically, the 6 Hz stimulation results in a seizure characterized by a minimal clonic phase that is followed by stereotyped, automatistic behaviors, including jaw clonus, forelimb clonus, twitching of the vibrissae, and/or Straub-tail. Animals not displaying such behaviors are considered protected. Seizure score can be used as an additional measure of the efficacy of the investigational compound (Racine, R. J. 1972 Electroencephalogr. Clin. Neurophysiol. 32(3):281-294). Data are analyzed by Mann-Whitney U test, with p<0.05 determined to be statistically significant. For data obtained at each time point, results are expressed as the total number of animals protected out of the number of animals tested over time (e.g., 2/4 represents 2 out of 4 mice tested are protected).
In this Example, the in vivo anticonvulsant effects of candidate AEDs were tested in mice using the 6 Hz seizure test. The 6 Hz seizure test was performed essentially as described above in Biological Example 2, with minor modifications as presented here, including data collection at a time point that was one hour after administration of the candidate AEDs.
Compounds: Candidate AED compounds were prepared as described above unless otherwise noted, and were as follows: • Racemic fenfluramine ([rac]-fenfluramine hydrochloride); • (R)-fenfluramine ([R]-(−)-fenfluramine hydrochloride); • Racemic norfenfluramine ([rac]-norfenfluramine) was purchased from Toronto Research Chemicals, North York, Ontario, Canada; • (R)-norfenfluramine ([R]-(−)-norfenfluramine.
Animals: Adult male CF-1 albino mice (25-35 g) purchased from Harlan-Envigo (East Millstone, NJ). The mice were housed four per cage and had access to filtered water and chow ad libitum, throughout the experiment.
Compound Preparation and Administration: All four compounds were solubilized in sterile aqueous saline solution (0.9% NaCl). Compounds were administered to animals (16 mice in each treatment group) via intraperitoneal (IP) injection at 10 ml/kg volume, one hour prior to the assay. Control animals received vehicle (saline) only. […]

5-HT2C receptor = molecular target: T1, 5-HT2C receptor (Homo sapiens, UniProt P28335); conditions: Rothman et al. 2002, 2003; cited from earlier work
T1 sequence (P28335 33-458): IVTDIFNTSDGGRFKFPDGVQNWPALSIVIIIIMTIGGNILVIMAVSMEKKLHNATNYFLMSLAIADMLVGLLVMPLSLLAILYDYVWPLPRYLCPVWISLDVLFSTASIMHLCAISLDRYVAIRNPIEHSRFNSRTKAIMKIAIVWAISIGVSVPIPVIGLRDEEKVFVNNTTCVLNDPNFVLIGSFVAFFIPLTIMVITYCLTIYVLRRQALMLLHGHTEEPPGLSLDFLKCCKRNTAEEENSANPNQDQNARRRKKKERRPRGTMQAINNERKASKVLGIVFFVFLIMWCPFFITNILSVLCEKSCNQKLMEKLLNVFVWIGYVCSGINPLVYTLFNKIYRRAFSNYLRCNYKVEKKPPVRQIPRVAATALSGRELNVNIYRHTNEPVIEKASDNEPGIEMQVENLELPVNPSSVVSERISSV

5-HT2A receptor = 5-HT2A receptor (Homo sapiens, UniProt P28223); conditions: Rothman et al. 2002, 2003; cited from earlier work
Sequence of 5-HT2A receptor (P28223 whole entry): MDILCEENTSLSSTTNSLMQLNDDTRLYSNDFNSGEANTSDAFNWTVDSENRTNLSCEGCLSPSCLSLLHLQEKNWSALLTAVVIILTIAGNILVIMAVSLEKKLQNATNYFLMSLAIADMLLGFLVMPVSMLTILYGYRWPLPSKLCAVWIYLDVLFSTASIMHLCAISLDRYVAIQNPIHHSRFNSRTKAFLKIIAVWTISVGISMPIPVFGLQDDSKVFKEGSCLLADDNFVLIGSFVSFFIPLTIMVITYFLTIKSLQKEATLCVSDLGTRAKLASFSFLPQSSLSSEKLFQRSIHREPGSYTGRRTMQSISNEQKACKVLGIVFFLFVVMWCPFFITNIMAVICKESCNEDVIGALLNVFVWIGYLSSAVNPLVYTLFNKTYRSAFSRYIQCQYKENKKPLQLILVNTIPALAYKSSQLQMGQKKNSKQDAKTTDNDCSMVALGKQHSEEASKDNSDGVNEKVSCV

[2] = tested on: norepinephrine (NE) release; conditions: Rothman et al. 2002, 2003; cited from earlier work
5-HT2B receptor = 5-HT2B receptor (Homo sapiens, UniProt P41595); conditions: Rothman et al. 2002, 2003; cited from earlier work
Sequence of 5-HT2B receptor (P41595 whole entry): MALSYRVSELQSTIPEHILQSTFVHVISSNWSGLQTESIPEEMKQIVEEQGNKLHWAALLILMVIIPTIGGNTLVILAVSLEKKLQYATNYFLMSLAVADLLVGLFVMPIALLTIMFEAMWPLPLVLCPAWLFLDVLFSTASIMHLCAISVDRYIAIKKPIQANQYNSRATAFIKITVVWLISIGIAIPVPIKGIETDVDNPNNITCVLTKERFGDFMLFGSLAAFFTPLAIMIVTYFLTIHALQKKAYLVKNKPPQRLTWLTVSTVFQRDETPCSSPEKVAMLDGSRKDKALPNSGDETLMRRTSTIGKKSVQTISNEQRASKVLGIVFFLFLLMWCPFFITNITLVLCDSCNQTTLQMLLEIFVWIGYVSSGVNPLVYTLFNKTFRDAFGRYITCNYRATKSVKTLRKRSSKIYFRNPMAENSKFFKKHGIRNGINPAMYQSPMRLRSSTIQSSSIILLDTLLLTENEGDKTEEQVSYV

DBA/2 mice = assay: Audiogenic seizure test in DBA/2 mice; format: in vivo, mouse; conditions: 180 mg/kg IP, 30 min prior
Procedure: DBA/2 is a widely used inbred strain of mouse susceptible to audiogenic seizures due to the asp2 mutation. […] The objective of this study was to evaluate the anticonvulsant activity of (R/S)-fenfluramine and to compare it to (R)-fenfluramine in the DBA/2 mouse.
The method follows that described by Dilrmuiller et al., Neuroreport 4(6):683-686. Mice (DBA/2, 3-4 weeks old) were individually transferred (at 3-5 minute intervals) from the preparation room into an adjacent experimental room and placed in a Plexiglas™ jar (Diameter=40 cm; Height=35 cm) mounted with an electric bell (110-120 dB). Upon activating the bell, the occurrences and latencies to wild running fits, clonic and tonic seizures were measured. The number of deaths was also recorded. An audiogenic response score was assigned to each mouse as 0 (no seizure), 1 (wild running), 2 (clonic convulsion), 3 (tonic extension), or 4 (death). The bell was activated until a tonic seizure occurred or for a maximum of 60 seconds. Ten (10) mice were studied per group. The test was performed blind. All test compounds were dissolved in 0.9% saline (vehicle) and were administered by intraperitoneal (IP) injection at a dose volume of 10 mL/kg. Vehicle alone, (R/S)-fenfluramine (15 or 30 mg/kg) or (R)-fenfluramine (30 mg/kg) were administered 60 minutes prior to seizure induction. The positive reference compound (valproate; 180 mg/kg) was administered 30 minutes prior to seizure induction.

MES test = conditions: in vivo; cited from earlier work
6 Hz model = conditions: 30 min after i.p. injection; cited from earlier work

CC(N)Cc1cccc(C(F)(F)F)c1 (racemic) [(rac)-norfenfluramine, (R/S)-1-(3-(trifluoromethyl)phenyl)propan-2-amine]
Brain concentration [1]: 151.2 μM and 30718 ng/g | Plasma concentration [1]: 12.97 μM and 2636 ng/g | percentage of animals protected against psychomotor seizures (CF-1 mice): 50% | protective activity against seizures in the 6 Hz psychomotor seizure assay (CF-1 mice; summary statement): exhibited protective activity against seizures

C[C@@H](N)Cc1cccc(C(F)(F)F)c1 [(R)-norfenfluramine, (R)-1-(3-(trifluoromethyl)phenyl)propan-2-amine]
Brain concentration [1]: 179.6 μM and 36501 ng/g | Plasma concentration [1]: 17.73 μM and 3604 ng/g | percentage of animals protected against psychomotor seizures (CF-1 mice): 50%

C[C@H](N)Cc1cccc(C(F)(F)F)c1 [(S)-norfenfluramine, (S)-1-((3-trifluoromethyl)phenyl)propan-2-amine]
5-HT2C agonist activity (5-HT2C receptor): potent | 5-HT2A agonist activity (5-HT2A receptor): potent | NE release-promoting activity [2]: potent | 5-HT2B agonist activity (5-HT2B receptor): potent

CCCC(CCC)C(=O)O [Valproate]
Clonic Convulsion Incidence (DBA/2 mice; n=10): 0% | Tonic Extension Incidence (DBA/2 mice; n=10): 0% | Wild Running Incidence (DBA/2 mice; n=10): 40% | Clonic Convulsion Latency (DBA/2 mice; mean ± SEM, maximum 60 s): 60.0 ± 0.0 s | Tonic Extension Latency (DBA/2 mice; mean ± SEM, maximum 60 s): 60.0 ± 0.0 s | Wild Running Latency (DBA/2 mice; mean ± SEM, maximum 60 s): 38.1 ± 9.0 s | Audiogenic Response Score (DBA/2 mice; score 0-4, mean ± SEM, n=10): 0.4 ± 0.16

CC[C@@H](C(N)=O)N1CCCC1=O [levetiracetam]
efficacy in the MES test (MES test): ineffective | ED50 (6 Hz model): 19 mg/kg
